Source: ChEMBL document CHEMBL5532672, “Discovery of 2-Ethoxy-5-isobutyramido-N-1-substituted Benzamide Derivatives as Selective Kv2.1 Inhibitors with In Vivo Neuroprotective Effects” (J Med Chem, 2024)
Activity calls are given as the source filed them. No cut-off for these calls is given here.

Assays:
[1] = molecular target: T1, Potassium voltage-gated channel subfamily B member 1 (Homo sapiens, UniProt Q14721); assay: Inhibition of human KV2.1 stably expressed in HEK293 cells by whole cell patch-clamp assay; assay type: cell-based
T1 sequence (Q14721 whole entry): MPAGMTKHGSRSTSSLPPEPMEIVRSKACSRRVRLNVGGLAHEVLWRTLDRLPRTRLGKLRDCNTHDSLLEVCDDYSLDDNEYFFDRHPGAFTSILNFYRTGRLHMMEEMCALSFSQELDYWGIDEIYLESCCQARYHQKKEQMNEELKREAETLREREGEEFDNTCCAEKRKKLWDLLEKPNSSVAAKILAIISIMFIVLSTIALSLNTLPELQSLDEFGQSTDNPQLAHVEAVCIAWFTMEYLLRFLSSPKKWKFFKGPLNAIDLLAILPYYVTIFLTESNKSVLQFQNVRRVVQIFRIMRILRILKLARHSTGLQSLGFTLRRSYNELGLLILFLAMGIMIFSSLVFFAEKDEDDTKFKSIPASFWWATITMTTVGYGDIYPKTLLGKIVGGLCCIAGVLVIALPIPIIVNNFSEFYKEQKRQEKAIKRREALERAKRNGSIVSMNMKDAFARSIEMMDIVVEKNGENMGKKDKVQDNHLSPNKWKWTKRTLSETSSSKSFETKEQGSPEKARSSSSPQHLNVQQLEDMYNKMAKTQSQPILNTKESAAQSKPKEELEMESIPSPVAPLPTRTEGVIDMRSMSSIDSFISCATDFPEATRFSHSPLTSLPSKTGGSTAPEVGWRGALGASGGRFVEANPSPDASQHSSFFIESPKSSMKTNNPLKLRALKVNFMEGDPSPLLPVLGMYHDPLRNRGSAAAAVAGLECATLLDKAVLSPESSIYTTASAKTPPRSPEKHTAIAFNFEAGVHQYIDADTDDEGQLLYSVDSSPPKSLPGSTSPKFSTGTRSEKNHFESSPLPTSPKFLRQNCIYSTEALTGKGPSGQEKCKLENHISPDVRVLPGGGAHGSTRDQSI

[2] = molecular target: Potassium voltage-gated channel subfamily A member 5 (Homo sapiens, UniProt P22460); assay: Inhibition of KV1.5 (unknown origin) by whole cell patch-clamp assay
Chain of Potassium voltage-gated channel subfamily A member 5 (P22460 whole entry): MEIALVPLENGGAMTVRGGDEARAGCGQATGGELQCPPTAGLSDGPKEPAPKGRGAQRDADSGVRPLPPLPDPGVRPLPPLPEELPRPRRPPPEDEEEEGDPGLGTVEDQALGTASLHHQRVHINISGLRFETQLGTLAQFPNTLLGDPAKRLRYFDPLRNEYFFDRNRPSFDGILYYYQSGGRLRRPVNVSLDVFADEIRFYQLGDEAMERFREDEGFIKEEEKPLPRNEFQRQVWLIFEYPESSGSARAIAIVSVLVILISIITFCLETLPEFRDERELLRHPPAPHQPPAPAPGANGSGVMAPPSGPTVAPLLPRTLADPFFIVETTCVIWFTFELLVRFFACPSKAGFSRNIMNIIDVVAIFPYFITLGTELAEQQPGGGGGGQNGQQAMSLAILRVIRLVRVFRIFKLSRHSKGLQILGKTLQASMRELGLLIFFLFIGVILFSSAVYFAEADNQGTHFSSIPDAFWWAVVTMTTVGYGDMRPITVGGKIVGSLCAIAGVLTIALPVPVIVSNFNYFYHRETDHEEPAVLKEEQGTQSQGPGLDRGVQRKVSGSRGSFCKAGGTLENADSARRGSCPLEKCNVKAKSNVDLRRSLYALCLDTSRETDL

[3] = molecular target: T2, Voltage-gated potassium channel KCNC1 (Homo sapiens, UniProt P48547); assay: Inhibition of KV3.1 (unknown origin) by whole cell patch-clamp assay
T2 sequence (P48547 whole entry): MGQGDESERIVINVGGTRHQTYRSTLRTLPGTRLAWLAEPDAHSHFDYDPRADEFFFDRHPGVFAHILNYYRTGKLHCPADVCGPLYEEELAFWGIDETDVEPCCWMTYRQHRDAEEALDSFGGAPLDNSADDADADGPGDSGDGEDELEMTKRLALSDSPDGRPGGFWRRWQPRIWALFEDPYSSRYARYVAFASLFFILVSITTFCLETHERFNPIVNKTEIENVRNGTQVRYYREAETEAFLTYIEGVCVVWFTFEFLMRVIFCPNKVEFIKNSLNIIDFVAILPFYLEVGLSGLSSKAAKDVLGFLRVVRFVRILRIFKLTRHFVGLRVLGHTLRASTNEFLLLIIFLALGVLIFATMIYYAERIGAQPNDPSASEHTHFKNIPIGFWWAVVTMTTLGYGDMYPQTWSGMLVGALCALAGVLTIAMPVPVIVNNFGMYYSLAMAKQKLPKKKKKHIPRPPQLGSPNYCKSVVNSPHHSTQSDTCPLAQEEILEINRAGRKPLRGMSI

[4] = molecular target: Voltage-gated inwardly rectifying potassium channel KCNH2 (Homo sapiens, UniProt Q12809); assay: Inhibition of human ERG by whole cell patch-clamp assay; assay type: toxicity
Chain of Voltage-gated inwardly rectifying potassium channel KCNH2 (Q12809 whole entry): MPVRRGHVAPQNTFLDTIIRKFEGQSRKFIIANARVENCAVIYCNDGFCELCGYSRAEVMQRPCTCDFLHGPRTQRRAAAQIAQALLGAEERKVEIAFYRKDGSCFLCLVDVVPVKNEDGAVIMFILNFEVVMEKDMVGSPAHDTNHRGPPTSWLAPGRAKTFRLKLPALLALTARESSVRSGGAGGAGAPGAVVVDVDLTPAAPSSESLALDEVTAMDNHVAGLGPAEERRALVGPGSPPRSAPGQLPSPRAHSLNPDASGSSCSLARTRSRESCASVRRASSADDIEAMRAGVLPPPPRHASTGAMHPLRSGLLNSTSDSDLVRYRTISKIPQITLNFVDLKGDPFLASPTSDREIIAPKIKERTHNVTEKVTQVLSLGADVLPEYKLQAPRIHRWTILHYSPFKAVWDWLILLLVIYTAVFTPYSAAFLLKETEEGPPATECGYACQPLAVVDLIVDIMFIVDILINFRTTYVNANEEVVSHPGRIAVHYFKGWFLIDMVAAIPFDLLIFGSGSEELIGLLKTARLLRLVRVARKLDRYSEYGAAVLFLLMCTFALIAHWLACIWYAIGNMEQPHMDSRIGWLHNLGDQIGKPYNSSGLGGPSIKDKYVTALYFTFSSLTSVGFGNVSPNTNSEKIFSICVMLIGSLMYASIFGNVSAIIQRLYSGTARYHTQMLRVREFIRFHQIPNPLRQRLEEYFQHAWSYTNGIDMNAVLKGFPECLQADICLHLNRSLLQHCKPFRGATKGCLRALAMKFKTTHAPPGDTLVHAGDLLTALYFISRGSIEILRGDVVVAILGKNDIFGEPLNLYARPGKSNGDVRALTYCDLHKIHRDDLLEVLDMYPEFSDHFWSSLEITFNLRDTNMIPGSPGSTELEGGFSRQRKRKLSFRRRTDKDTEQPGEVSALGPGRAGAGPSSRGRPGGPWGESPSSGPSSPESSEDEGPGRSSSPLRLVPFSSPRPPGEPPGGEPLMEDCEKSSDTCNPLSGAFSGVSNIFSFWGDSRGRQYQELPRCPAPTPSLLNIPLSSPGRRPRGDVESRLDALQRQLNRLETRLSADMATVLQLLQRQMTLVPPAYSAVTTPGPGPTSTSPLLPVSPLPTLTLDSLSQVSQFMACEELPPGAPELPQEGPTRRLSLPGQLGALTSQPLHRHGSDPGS

[5] = molecular target: T3, Potassium voltage-gated channel subfamily B member 1 (Homo sapiens) (UniProt Q14721); assay: Inhibition of human KV2.1 stably expressed in HEK293 cells at 1 uM by whole cell patch-clamp assay; assay type: cell-based
T3 sequence (whole entry): T1 sequence (Q14721 whole entry)

Compound: CC(C)C(=O)Nc1ccc(N(C)C)c(C(=O)NCc2ccccn2)c1
- IC50 [1]: 540 nM
- IC50 [2]: > 30000 nM
- IC50 [3]: > 30000 nM
- IC50 [4]: 30000 nM

Compound: CCOc1ccc(NC(=O)C2CCCC2)cc1C(=O)NC(C)c1cccc(-c2nccs2)c1 (stereo not drawn)
- IC50 [1]: > 10000 nM

Compound: COc1ccc(NC(=O)C(C)C)cc1C(=O)NC(C)c1cccc(-c2nccs2)c1 (stereo not drawn)
- IC50 [1]: 3000 nM

Compound: CCOc1ccc(NC(=O)C(C)C)cc1C(=O)NC(C)c1cccc(N2CCCC2)c1 (stereo not drawn)
- IC50 [1]: ~1000 nM

Compound: CCOc1ccc(NC(=O)C(C)C)cc1C(=O)NC(C)c1cccc(C)c1 (stereo not drawn)
- IC50 [1]: 80 nM
- IC50 [2]: 5700 nM
- IC50 [3]: > 30000 nM
- IC50 [4]: 30000 nM

Compound: CC(C)C(=O)Nc1ccc(N(C)C)c(C(=O)NCc2cccc3ccccc23)c1
- IC50 [1]: > 1000 nM

Compound: CCOc1ccc(NC(=O)CC)cc1C(=O)NC(C)c1cccc(-c2nccs2)c1 (stereo not drawn)
- IC50 [1]: ~10000 nM

Compound: CC(C)C(=O)Nc1ccc(N(C)C)c(C(=O)NCc2cccnc2)c1
- IC50 [1]: > 1000 nM

Compound: CCOc1ccc(NC(=O)C(C)C)cc1C(=O)NC(C)c1cccc(Br)c1 (stereo not drawn)
- IC50 [1]: ~1000 nM

Compound: CCOc1ccc(NC(=O)C(C)C)cc1C(=O)NC(C)c1cccc(F)n1 (stereo not drawn)
- IC50 [1]: 320 nM

Compound: CCOc1ccc(NC(=O)C(C)C)cc1C(=O)NC(C)c1cccc(OC(F)F)c1 (stereo not drawn)
- IC50 [1]: 250 nM
- IC50 [2]: 10000 nM
- IC50 [4]: 10000 nM

Compound: CC(C)C(=O)Nc1cccc(C(=O)NC(C)c2cccc(-c3nccs3)c2)c1 (stereo not drawn)
- IC50 [1]: > 1000 nM

Compound: CCOc1ccc(NC(=O)C2CCC2)cc1C(=O)NC(C)c1cccc(-c2nccs2)c1 (stereo not drawn)
- IC50 [1]: 550 nM

Compound: CCOc1ccc(N2CCCC2=O)cc1C(=O)NCc1cccc(-c2nccs2)c1
- inhibition [5]: inactive

Compound: CCOc1ccc(NC(=O)c2ccccc2)cc1C(=O)NCc1cccc(-c2nccs2)c1
- inhibition [5]: inactive

Compound: CCOc1ccc(NC(C)=O)cc1C(=O)NC(C)c1cccc(-c2nccs2)c1 (stereo not drawn)
- IC50 [1]: ~10000 nM

Compound: CCOc1ccc(NC(=O)C(C)C)cc1C(=O)NC(C)c1cccc(-c2nccs2)c1 (stereo not drawn)
- IC50 [1]: 430 nM
- IC50 [2]: 10000 nM
- IC50 [3]: > 30000 nM
- IC50 [4]: > 30000 nM

Compound: CCOc1ccc(NC(=O)C(C)C)cc1C(=O)NC(C)c1ccnc(OC)n1 (stereo not drawn)
- IC50 [1]: ~1000 nM

Compound: CCOC(=O)Nc1ccc(OCC)c(C(=O)NC(C)c2cccc(-c3nccs3)c2)c1 (stereo not drawn)
- IC50 [1]: 1100 nM

Compound: CC(C)Oc1ccc(NC(=O)C(C)C)cc1C(=O)NC(C)c1cccc(-c2nccs2)c1 (stereo not drawn)
- IC50 [1]: > 1000 nM

Compound: CCOc1ccc(NC(=O)C2CC2)cc1C(=O)NC(C)c1cccc(-c2nccs2)c1 (stereo not drawn)
- IC50 [1]: 1100 nM

Compound: CCOc1ccc(NC(=O)C(C)C)cc1C(=O)NCc1cccc(OC(F)(F)F)c1
- IC50 [1]: 337 nM

Compound: CC(C)C(=O)Nc1ccc(N(C)C)c(C(=O)NCc2cccc(-c3nccs3)c2)c1
- IC50 [1]: 390 nM
- IC50 [2]: 11000 nM
- IC50 [3]: > 30000 nM
- IC50 [4]: 30000 nM

Compound: CCOc1ccc(NC(=O)C(C)C)cc1C(=O)NC(C)c1ccnc(OC)c1 (stereo not drawn)
- IC50 [1]: 430 nM

Compound: CCOc1ccc(NC(=O)C(C)C)cc1C(=O)NC(C)c1ccnc(Cl)n1 (stereo not drawn)
- IC50 [1]: ~1000 nM

Compound: CCOc1ccc(NC(=O)C(C)C)cc1C(=O)NC(C)c1cccc(N2CCC2)c1 (stereo not drawn)
- IC50 [1]: 320 nM

Compound: CCOc1ccc(NC(=O)C(C)C)cc1C(=O)NC(C)c1cccc(-c2ncccn2)c1 (stereo not drawn)
- IC50 [1]: 660 nM

Compound: CCOc1ccc(N(C)C(=O)C(C)C)cc1C(=O)NCc1cccc(-c2nccs2)c1
- inhibition [5]: inactive

Compound: CCOc1ccc(NC(=O)C(C)C)cc1C(=O)NC(C)c1cccc(Br)n1 (stereo not drawn)
- IC50 [1]: ~1000 nM

Compound: CCOc1ccc(C(=O)NC(C)C)cc1C(=O)NCc1cccc(-c2nccs2)c1
- inhibition [5]: inactive

Compound: CCOc1ccc(NC(=O)C(C)C)cc1C(=O)NC(C)c1cncc(C)n1 (stereo not drawn)
- IC50 [1]: > 1000 nM

Compound: CCOc1ccc(NC(=O)C(F)(F)F)cc1C(=O)NC(C)c1cccc(-c2nccs2)c1 (stereo not drawn)
- IC50 [1]: > 10000 nM

Compound: CCOc1ccc(NC(=O)OC(C)C)cc1C(=O)NC(C)c1cccc(-c2nccs2)c1 (stereo not drawn)
- IC50 [1]: 1000 nM

Compound: CCOc1ccc(NC(=O)C(C)C)cc1C(=O)NCc1cccc(OC(F)F)c1
- IC50 [1]: 300 nM
- IC50 [2]: 14200 nM
- IC50 [3]: > 30000 nM
- IC50 [4]: 30000 nM

Compound: CCCOc1ccc(NC(=O)C(C)C)cc1C(=O)NC(C)c1cccc(-c2nccs2)c1 (stereo not drawn)
- IC50 [1]: 590 nM

Compound: CCOc1ccc(NC(=O)C(C)C)cc1C(=O)NCc1cccc(-c2nccs2)c1
- IC50 [1]: 530 nM

Compound: CC(C)C(=O)Nc1ccc(N(C)C)c(C(=O)NCc2ccncc2)c1
- inhibition [5]: inactive

Compound: CC(C)C(=O)Nc1ccc(OCC(F)(F)F)c(C(=O)NC(C)c2cccc(-c3nccs3)c2)c1 (stereo not drawn)
- IC50 [1]: > 1000 nM

Compound: CC(C)C(=O)Nc1ccc(N(C)C)c(C(=O)NCc2cccc(-c3ccco3)c2)c1
- IC50 [1]: > 1000 nM

Compound: CCOc1ccc(NC(=O)C(C)C)cc1C(=O)NC(C)c1cccc(Cl)n1 (stereo not drawn)
- IC50 [1]: ~1000 nM

Compound: CC(C)C(=O)Nc1ccc(OCC(F)(F)F)c(C(=O)NCc2cccc(-c3nccs3)c2)c1
- IC50 [1]: > 1000 nM

Compound: CCOc1ccc(NC(=O)C(C)C)cc1C(=O)NC(C)c1cccc(OC)c1 (stereo not drawn)
- IC50 [1]: 370 nM

Compound: CCOc1ccc(NC(=O)C(C)C)cc1C(=O)NCc1cccc(N2CCCC2)c1
- IC50 [1]: ~1000 nM

Compound: CCOc1ccc(NC(=O)C(C)C)cc1C(=O)NC(C)c1ccnc(NC)n1 (stereo not drawn)
- IC50 [1]: > 1000 nM

Compound: CCOc1ccc(NS(=O)(=O)CC)cc1C(=O)NC(C)c1cccc(-c2nccs2)c1 (stereo not drawn)
- IC50 [1]: 10000 nM

Compound: CCOc1ccc(NC(=O)C(C)C)cc1C(=O)NCc1cccc(-c2ccccn2)c1
- IC50 [1]: > 1000 nM

Compound: CC(C)COc1ccc(NC(=O)C(C)C)cc1C(=O)NC(C)c1cccc(-c2nccs2)c1 (stereo not drawn)
- IC50 [1]: > 1000 nM

Compound: CC(C)C(=O)Nc1ccc(N(C)C)c(C(=O)NC(C)c2ccccc2)c1 (racemic)
- IC50 [1]: 480 nM

Compound: CCOc1ccc(NC(=O)C(C)C)cc1C(=O)NC(C)c1cccc(OC)n1 (stereo not drawn)
- IC50 [1]: 50 nM
- IC50 [2]: 10000 nM
- IC50 [4]: > 30000 nM

Compound: CCOc1ccc(NC(=O)C(C)C)cc1C(=O)NCc1cccc(Br)c1
- IC50 [1]: ~1000 nM

Compound: CCOc1ccc(NC(=O)C(C)C)cc1C(=O)NC(C)c1ccnc(C)n1 (stereo not drawn)
- IC50 [1]: ~1000 nM

Compound: CCOc1ccc(NC(=O)C(C)C)cc1C(=O)N(C)Cc1cccc(-c2nccs2)c1
- inhibition [5]: inactive

Compound: CCOc1ccc(NC(=O)C(C)C)cc1C(=O)NC(C)c1ccccc1 (stereo not drawn)
- IC50 [1]: ~1000 nM

Compound: CC(C)C(=O)Nc1ccc(N(C)C)c(C(=O)NCc2cccc(-c3ccccc3)c2)c1
- IC50 [1]: 3550 nM
